This passage reports IC50 results from patent publication EP0552765B1, “Benzimidazoles, pharmaceutical compositions containing them and process for their preparation” (Dr. Karl Thomae GmbH, priority 1992, dated 1993).

Counter-ions that a name gives are not always drawn.

For this test, the target named is Angiotensin II-Rezeptor. The test can be described thus: Angiotensin II receptor binding (displacement of [125I]-Angiotensin II from rat lung homogenate). Details: species or system Ratte. The following applies: Rattenlunge homogenate; 50 pM [125I]-Angiotensin II; 60 Min. at 37°C; IC50 from dose-response curve. As for the experimental part:
Methodenbeschreibung Angiotensin II-Rezeptorbindung
Das Gewebe (Rattenlunge) wird in Tris-Puffer (50 mMol Tris, 150 mMol NaCl, 5 mMol EDTA, pH 7.40) homogenisiert und zweimal je 20 Min. bei 20.000 x g zentrifugiert. Das endgültige Pellet wird in Inkubations-Puffer (50 mMol Tris, 5 mMol MgCl2, 0,2 % BSA, pH 7,40) 1:75, bezogen auf das Feuchtgewicht des Gewebes, resuspendiert. Je 0,1 ml Homogenat wird für 60 Min. bei 37°C mit 50 pM [125^I]-Angiotensin II (NEN, Dreieich, FRG) und steigenden Konzentrationen der Testsubstanz in einem Gesamtvolumen von 0,25 ml inkubiert. Die Inkubation wird durch rasche Filtration durch Glasfiber-Filtermatten beendet. Die Filter werden je 4 ml eiskaltem Puffer (25 mMol Tris, 2.5 mMol MgCl2, 0,1 % BSA, pH 7,40) gewaschen. Die gebundene Radioaktivität wird in einem Gamma-Counter ermittelt. Aus der Dosis-Wirkungskurve wird der entsprechende IC50-Wert ermittelt.
By IC50 is commonly meant the concentration needed to halve the response being measured. A lower IC50 goes with higher potency. `CCOc1nc2ccc(-c3cn(C(C)C)cn3)cc2n1Cc1ccc(-c2ccccc2C(=O)O)cc1` [Substanz D, 4'-[(2-Ethoxy-6-(1-isopropyl-imidazol-4-yl)-benzimidazol-1-yl)-methyl]-biphenyl-2-carbonsäure] gave an IC50 of 10 nM.
As for `CCCc1nc2c(C)cc(-c3cn(CCCN(C)C)cn3)cc2n1Cc1ccc(-c2ccccc2C(=O)O)cc1` [Substanz G, 4'-[(2-n-Propyl-4-methyl-6-(1-(3-dimethylaminopropyl)-imidazol-4-yl)-benzimidazol-1-yl)-methyl]-biphenyl-2-carbonsäure-dihydrochlorid-pentahydrat], the figure is 1.3 nM.
As to `CCCc1nc2c(C)cc(-c3cn(CC(N)=O)cn3)cc2n1Cc1ccc(-c2ccccc2C(=O)O)cc1` [Substanz F, 4'-[(2-n-Propyl-4-methyl-6-(1-aminocarbonylmethyl-imidazol-4-yl)-benzimidazol-1-yl)-methyl]-biphenyl-2-carbonsäure], the IC50 amounted to 3.4 nM. This IC50 lies about 2.6-fold higher than the previous one.
Under `CCCc1nc2c(C)cc(-c3cn(C4CCCCCC4)cn3)cc2n1Cc1ccc(-c2ccccc2C(=O)O)cc1` [Substanz E, 4'-[(2-n-Propyl-4-methyl-6-(1-cycloheptyl-imidazol-4-yl)-benzimidazol-1-yl)-methyl]-biphenyl-2-carbonsäure] stands 15 nM; under `CCCc1nc2c(C)cc(-c3cn(C)cn3)cc2n1Cc1ccc(-c2ccccc2C(=O)O)cc1` [Substanz A, 4'-[(2-n-Propyl-4-methyl-6-(1-methyl-imidazol-4-yl)-benzimidazol-1-yl)-methyl]-biphenyl-2-carbonsäure, reference compound], 1.2 nM.
As for `CCCc1nc2c(C)cc(-c3coc(C)n3)cc2n1Cc1ccc(-c2ccccc2C(=O)O)cc1` [Substanz C, 4'-[(2-n-Propyl-4-methyl-6-(2-methyl-oxazol-4-yl)-benzimidazol-1-yl)-methyl]-biphenyl-2-carbonsäure], the figure is 40 nM.
